The text below walks through data of article PMC10111413 (ACS Infectious Diseases, 2023).

Where only a bound is given, the exact number is not on record here.

Assay type in all cases: cell-based
The subject of one data set is sheep red blood cells. Kind of data set: Hemolytic assay. Conditions: 128 μg/mL, 1 h at 37 °C, sheep red blood cells in PBS with 0.002% Tween20, read-out 415 nm, relative to 0.1% Triton X-100, triplicate. As to the method: Figure S2. Hemolytic activity of compounds 3a-5 at 128 µg/mL and 1 h incubation against sheep red […]
under the same conditions.
Experiments were performed in triplicate and Triton X-100 used as a positive control. Red blood cells from defibrinated sheep blood obtained from Thermo Fisher were centrifuged (400 g for 15 min at 4°C) and washed with Phosphate-Buffered Saline (PBS) containing 0.002% Tween20 (buffer) five times. Then, the red blood cells were normalized to obtain a positive control read-out between 2.5 and 3.0 at 415 nm to stay within the linear range with the maximum sensitivity. A serial dilution of the compounds (128 – 1 µg/mL, 75 µL) was prepared in a 96-well polypropylene plate. The outer border of the plate was filled with 75 µL buffer. Each plate contained a positive control (0.1% Triton-X final concentration, 75 µL) and a negative control (buffer, 75 µL) in triplicate. The normalized blood cells (75 µL) were added and the plates were incubated at 37 °C for 1 h while shaking at 500 rpm. A flat - bottom polystyrene plate with 100 µL buffer in each well was prepared. […] The values obtained from a read-out at 415 nm were corrected for background (negative control) and transformed to a percentage relative to the positive […]

Another data set relates to S. aureus USA300. Conditions: CLSI microbroth dilution, Mueller Hinton broth, 18 h at 37 °C, visual read-out, three technical replicates. As to the method: (§1) The antibacterial activities of relacidine A (3a) and B (4a), along with diastereomers 3b and 4b–d and relacidamide (5), were assessed using a standard microbroth dilution assay to establish minimum inhibitory concentration (MIC) values against a panel of Gram-negative bacteria (Table 1). The MIC values measured for synthetic relacidine A (3a) and B (4a) agree well with those previously published.[9] […] Relacidine A (3a) and B (4a), as well as relacidamide (5), were further tested against a panel of colistin-resistant A. baumannii clinical isolates, which confirmed their ability to prevent the growth of colistin-resistant isolates (Supplemental Table S2). […] Also of interest was the finding that while relacidine B (4a) induced <1% hemolysis, a substitution of either the L-Ala or L-Ser to D-Ala or D-Ser increased hemolytic activity to 8–12%. […] The greater hydrolytic stability of relacidine B would appear to be attributable to the increased steric bulk of the Ala side chain next to the ester linkage (compared with the methylene of Gly in relacidine A), which may hinder the nucleophilic attack of water at the ester carbonyl.
(§2) Colistin sulfate was purchased from Activate Scientific. Kanamycin monosulfate was purchased from MP Biomedicals. E. coli ATCC 25922, S. aureus USA300 (ATCC BAA1717), and K. pneumoniae ATCC 13883 belong to the American Type Culture Collection (ATCC). P. aeruginosa PAO1 was kindly provided by L.H.C. Quarles Van Ufford of Utrecht University, Utrecht, The Netherlands. E. coli ATCC 25922 MCR-1 was transfected in-house using the pGDP2-MCR1 plasmid kindly provided by Yong-Xin Li of The University of Hong Kong, Hong Kong, China. Sheep blood agar plates (ref. PB5039A) were purchased from Thermo Scientific. Tryptic soy broth (ref. 02-200-500) was purchased from Scharlab. Mueller-Hinton broth (ref. X927.1) was purchased from Carl Roth. Polypropylene 96-wells plates (ref. 3879) were purchased from Corning.
(§3) MICs were determined according to Clinical and Standards Laboratory Institute (CLSI) guidelines. Blood agar plates were inoculated with glycerol stocks of E. coli ATCC 25922, K. pneumoniae ATCC 13883, P. aeruginosa PAO1, and S. aureus USA300. The inoculated agar plates were then incubated for 16 h at 37 °C. Individually grown colonies were subsequently used to inoculate 5 mL aliquots of tryptic soy broth (TSB) that were then incubated at 37 °C with shaking at 220 rpm. E. coli 25922 MCR-1 glycerol stock was used to inoculate 5 mL of TSB supplemented with kanamycin that was then incubated for 16 h at 37 °C with shaking at 220 rpm. The next day, the culture was diluted 100-fold in TSB supplemented with kanamycin and incubated at 37 °C with shaking at 220 rpm. In parallel, the lipopeptide antibiotic DMSO stocks to be assessed were serially diluted with Mueller Hinton broth (MHB) in polypropylene 96-well plates (50 μL in each well). Colistin sulfate stocks were dissolved in water before being diluted with MHB. Aliquots of the inoculated TSB were incubated until an OD600 of around 0.5 was reached. The bacterial suspensions were then diluted with MHB (2 × 10^5 cfu mL^–1) and added to the microplates containing the test compounds (50 μL to each well). The well plates were sealed with an adhesive membrane, and after 18 h of incubation at 37 °C with shaking at 600 rpm, the wells were visually inspected for bacterial growth. MIC values reported are based on three technical replicates and defined as the lowest concentration of the compound that prevented visible growth of bacteria.
On the technique in general: In broth dilution the organism is exposed to a series of concentrations in liquid medium.

For the next data set, the system named is K. pneumoniae ATCC 13883. The following applies: CLSI microbroth dilution, Mueller Hinton broth, 18 h at 37 °C, visual read-out, three technical replicates. As to the method:
as §1, §2, §3

Another data set concerns E. coli ATCC 25922 mcr-1. Conditions: CLSI microbroth dilution, Mueller Hinton broth, 18 h at 37 °C, visual read-out, three technical replicates; mcr-1 colistin resistance plasmid. On the procedure:
as §1, §2, §3

A further data set deals with P. aeruginosa PAO1. The following applies: CLSI microbroth dilution, Mueller Hinton broth, 18 h at 37 °C, visual read-out, three technical replicates. As to the method: as §1, §2, §3
Another data set relates to E. coli ATCC 25922. The following applies: CLSI microbroth dilution, Mueller Hinton broth, 18 h at 37 °C, visual read-out, three technical replicates. On the procedure: as §1, §2, §3

As to colistin [reference compound], the hemolysis in the data set with sheep red blood cells was below 0.1%. Moreover, in the data set with S. aureus USA300, the “MIC S. aureus USA300” value is above 32 µg/mL. Further, the “MIC K. pneumoniae ATCC 13883” value in the data set on K. pneumoniae ATCC 13883 was 0.25 to 0.5 µg/mL. Besides, in the data set with E. coli ATCC 25922 mcr-1, the “MIC E. coli ATCC 25922 mcr-1” value was 4 µg/mL. In the data set on P. aeruginosa PAO1, the “MIC P. aeruginosa PAO1” value was determined as 1 µg/mL. The “MIC E. coli ATCC 25922” value with E. coli ATCC 25922 was 1 µg/mL.
